From patent US20250340519A1, “RADIOLABELLED COMPOUND” (OXFORD UNIVERSITY INNOVATION LIMITED, priority 2018, published 2025)
“And” between values parts separate entries of the source, which are not always exact repeats. Equal entries are not always repeated.

Columns and labels:
Panc-1 xenograft = test: Ex vivo biodistribution in Panc-1 xenograft bearing mice; settings: Panc-1 xenograft mice, 1 h p.i., individual animals
CaNT allograft = test: Ex vivo biodistribution in CaNT allograft bearing CBA/Carl mice; settings: for Ex vivo biodistribution Blood / Ex vivo biodistribution Bone / Ex vivo biodistribution Brain / Ex vivo biodistribution Caecum / Ex vivo biodistribution Fat / Ex vivo biodistribution Gallbladder / Ex vivo biodistribution Heart / Ex vivo biodistribution Kidney / Ex vivo biodistribution Large intestine / Ex vivo biodistribution Liver / Ex vivo biodistribution Lung / Ex vivo biodistribution Muscle / Ex vivo biodistribution Pancreas / Ex vivo biodistribution Skin / Ex vivo biodistribution Spleen / Ex vivo biodistribution Stomach / Ex vivo biodistribution Tumour: CaNT allograft mice, 1 h p.i.; for tumour uptake (group mean): CaNT tumours
Experimental: All animal procedures were performed in accordance with the UK Animals (Scientific Procedures) Act 1986 and with local ethical committee approval. Animals were housed in IVC cages in sex-matched groups up to 5 per cage, in an artificial day-night cycle facility, with ad libitum access to food and water. Tumour xenografts or allografts were generated by subcutaneous injection of PANC-1 or Capan-1 cell suspensions in the hind flank of balb/c nu/nu animals. CaNT xenografts were generated by harvesting CaNT tumours from donor animals, and injecting a tumour homogenate subcutaneously in the flank of wild type CBA/Carl mice. Tumours were irradiated (10 Gy, 2 Gy/min) using a 300 kV X-ray device.
Dynamic PET/CT images were acquired following an intravenous bolus administration of [^18F]-olaparib. Biodistribution studies, where selected tissues were harvested, were performed 1 h post injection. Some animals were also administered an excess of cold, unlabelled olaparib for evaluating the specificity of tumour uptake. EF5, a hypoxia-selective marker, was injected 2 h before culling of the animal. Digital autoradiography was performed on tumour sections. Image analysis was performed using PMOD.
The murine adenocarcinoma NT (CaNT) was implanted subcutaneously onto the right thigh of 6-7 week-old female CBA/Carl mice. Fifty μL of a crude cell suspension, prepared by mechanical dissociation of an excised tumor from a donor animal, was injected. Tumors were selected for imaging when the geometric mean diameter reached 6-8 mm (volumes calculated as above), approximately 3 weeks after implantation (Kersemans, V., et al. Hypoxia imaging using PET and SPECT: the effects of anesthetic and carrier gas on [Cu]-ATSM, [Tc]-HL91 and [F]-FMISO tumor hypoxia accumulation. PloS one 6, e25911, 2011).
Two hours prior to PET/CT imaging, animals were exposed to X-irradiation of the tumour (10 Gy or sham) (see schedule in FIG. 13). Radiation was delivered using a Gulmay 320 kV X-irradiator; 2.0 Gy/min. Anaesthesia was maintained at 2.5% isoflurane throughout the duration of the irradiation, and animals were allowed to recover. To study the relationship of PARP1 expression, ^18F-olaparib uptake and hypoxia, animals were administered 0.6 μg in 200 μL (0.9% saline) intraperitoneally, one hour prior to PET/CT imaging. Naïve CBA/Carl mice, not bearing tumours, were not irradiated, nor was EF5 administered.
Dynamic PET/CT images were acquired using a VECTor ^4CT integrated PET/CT system. Mice were anaesthetised by 4% isoflurane gas (0.5 L/min O2) and placed on a custom-built imaging cradle in a prone position. Animals mice were intravenously injected with [^18F]-olaparib or (3-5 MBq, 8-11 GBq/μmol, through a tail vein catheter, and dynamic imaging was performed over 45-60 min after radiolabelled compound administration. PET acquisition (150 s per frame, using list mode acquisition) using an ultra-high resolution rat/mouse 1.8 mm collimator, followed by a cone-beam CT scan (55 kV, 0.19 mA) for anatomical reference and attenuation correction. Anaesthesia was maintained at 2.5% isoflurane throughout the duration of the image acquisition. PET images were reconstructed using U-SPECT-Rec3.22 software (MILabs, Utrecht, The Netherlands), applying a pixel-based algorithm with 8 subsets, 6 iterations and 0.8 mm voxel size for ^18F (energy window settings 477.9-584.1 keV).
After PET/CT image acquisition, animals were euthanized by cervical dislocation and selected organs, tissues and blood were removed. The amount of radioactivity in each organ was measured using a 2480 WIZARD^2 gamma counter (PerkinElmer). Counts per minute were converted into MBq using a calibration curve generated from known standards. Values were decay-corrected to the time of injection, and the percentage of the injected dose per gram (% ID/g) of each tissue was calculated.

[1] = + IR (10 Gy), individual animals
[2] = + block (excess cold olaparib), individual animal
[3] = tracer alone, individual animals

SMILES: O=C(c1cc(Cc2n[nH]c(=O)c3ccccc23)ccc1[18F])N1CCN(C(=O)C2CC2)CC1 [[^18F]olaparib]
- Ex vivo biodistribution Kidney (Panc-1 xenograft; + IR (10 Gy)): 10.0 % ID/g and 9.25 % ID/g and 10.6 % ID/g
- Ex vivo biodistribution Large intestine (Panc-1 xenograft; + IR (10 Gy)): 27.5 % ID/g and 28.9 % ID/g and 16.2 % ID/g
- Ex vivo biodistribution Liver (Panc-1 xenograft; + IR (10 Gy)): 25.1 % ID/g and 33.8 % ID/g and 45.7 % ID/g
- Ex vivo biodistribution Pancreas (Panc-1 xenograft; + IR (10 Gy)): 13.6 % ID/g and 10.3 % ID/g and 11.4 % ID/g
- Ex vivo biodistribution Spleen (Panc-1 xenograft; + IR (10 Gy)): 45.0 % ID/g and 20.5 % ID/g and 14.3 % ID/g
- Ex vivo biodistribution Stomach (Panc-1 xenograft; + IR (10 Gy)): 4.15 % ID/g and 0.92 % ID/g and 0.87 % ID/g
- Ex vivo biodistribution Bone (Panc-1 xenograft; + block (excess cold olaparib)): 1.06 % ID/g and 0.78 % ID/g and 0.80 % ID/g and 0.46 % ID/g
- Ex vivo biodistribution Kidney (Panc-1 xenograft; + block (excess cold olaparib)): 13.1 % ID/g and 5.09 % ID/g and 3.98 % ID/g and 2.44 % ID/g
- Ex vivo biodistribution Large intestine (Panc-1 xenograft; + block (excess cold olaparib)): 20.1 % ID/g and 13.3 % ID/g and 61.4 % ID/g and 12.7 % ID/g
- Ex vivo biodistribution Liver (Panc-1 xenograft; + block (excess cold olaparib)): 29.1 % ID/g and 32.9 % ID/g and 22.4 % ID/g and 23.1 % ID/g
- Ex vivo biodistribution Pancreas (Panc-1 xenograft; + block (excess cold olaparib)): 1.92 % ID/g and 2.29 % ID/g and 1.91 % ID/g and 1.79 % ID/g
- Ex vivo biodistribution Small intestine (Panc-1 xenograft; + block (excess cold olaparib)): 89.9 % ID/g and 77.2 % ID/g and 96.4 % ID/g and 132 % ID/g
- Ex vivo biodistribution Spleen (Panc-1 xenograft; + block (excess cold olaparib)): 1.62 % ID/g and 1.46 % ID/g and 1.24 % ID/g and 0.69 % ID/g
- Ex vivo biodistribution Stomach (Panc-1 xenograft; + block (excess cold olaparib)): 1.44 % ID/g and 0.79 % ID/g and 0.46 % ID/g and 0.21 % ID/g
- Ex vivo biodistribution Bone (Panc-1 xenograft; tracer alone): 3.38 % ID/g and 4.54 % ID/g
- Ex vivo biodistribution Kidney (Panc-1 xenograft; tracer alone): 10.5 % ID/g and 7.95 % ID/g and 6.02 % ID/g and 7.04 % ID/g and 3.41 % ID/g and 3.66 % ID/g
- Ex vivo biodistribution Large intestine (Panc-1 xenograft; tracer alone): 12.6 % ID/g and 30.5 % ID/g and 80.8 % ID/g and 27.0 % ID/g and 28.9 % ID/g and 6.61 % ID/g
- Ex vivo biodistribution Liver (Panc-1 xenograft; tracer alone): 26.2 % ID/g and 34.6 % ID/g and 27.0 % ID/g and 21.0 % ID/g and 13.5 % ID/g and 18.0 % ID/g
- Ex vivo biodistribution Pancreas (Panc-1 xenograft; tracer alone): 8.49 % ID/g and 9.38 % ID/g and 7.25 % ID/g and 5.52 % ID/g and 2.78 % ID/g and 4.24 % ID/g
- Ex vivo biodistribution Small intestine (Panc-1 xenograft; tracer alone): 54.5 % ID/g and 58.1 % ID/g and 30.6 % ID/g and 31.9 % ID/g and 18.6 % ID/g and 26.6 % ID/g
- Ex vivo biodistribution Spleen (Panc-1 xenograft; tracer alone): 17.5 % ID/g and 13.7 % ID/g and 11.3 % ID/g and 14.0 % ID/g and 7.36 % ID/g and 8.01 % ID/g
- Ex vivo biodistribution Stomach (Panc-1 xenograft; tracer alone): 2.59 % ID/g and 3.53 % ID/g and 1.81 % ID/g and 1.80 % ID/g and 0.55 % ID/g and 0.60 % ID/g
- Ex vivo biodistribution Blood (CaNT allograft; [1]): 9.79 % ID/g and 3.12 % ID/g
- Ex vivo biodistribution Bone (CaNT allograft; [1]): 15.7 % ID/g and 11.5 % ID/g
- Ex vivo biodistribution Brain (CaNT allograft; [1]): 0.20 % ID/g and 0.25 % ID/g
- Ex vivo biodistribution Caecum (CaNT allograft; [1]): 42.9 % ID/g and 44.6 % ID/g
- Ex vivo biodistribution Fat (CaNT allograft; [1]): 2.52 % ID/g and 2.34 % ID/g
- Ex vivo biodistribution Gallbladder (CaNT allograft; [1]): 155 % ID/g and 57.3 % ID/g
- Ex vivo biodistribution Heart (CaNT allograft; [1]): 8.74 % ID/g and 7.03 % ID/g
- Ex vivo biodistribution Kidney (CaNT allograft; [1]): 24.5 % ID/g and 19.0 % ID/g
- Ex vivo biodistribution Large intestine (CaNT allograft; [1]): 60.1 % ID/g and 47.0 % ID/g
- Ex vivo biodistribution Liver (CaNT allograft; [1]): 93.2 % ID/g and 100 % ID/g
- Ex vivo biodistribution Lung (CaNT allograft; [1]): 10.9 % ID/g and 9.61 % ID/g
- Ex vivo biodistribution Muscle (CaNT allograft; [1]): 5.45 % ID/g and 5.31 % ID/g
- Ex vivo biodistribution Pancreas (CaNT allograft; [1]): 29.5 % ID/g and 23.6 % ID/g
- Ex vivo biodistribution Skin (CaNT allograft; [1]): 5.02 % ID/g and 5.12 % ID/g
- Ex vivo biodistribution Spleen (CaNT allograft; [1]): 69.0 % ID/g and 58.3 % ID/g
- Ex vivo biodistribution Stomach (CaNT allograft; [1]): 9.40 % ID/g and 4.20 % ID/g
- Ex vivo biodistribution Tumour (CaNT allograft; [1]): 1.43 % ID/g and 1.92 % ID/g
- Ex vivo biodistribution Blood (CaNT allograft; [2]): 4.00 % ID/g
- Ex vivo biodistribution Bone (CaNT allograft; [2]): 5.18 % ID/g
- Ex vivo biodistribution Brain (CaNT allograft; [2]): 0.22 % ID/g
- Ex vivo biodistribution Caecum (CaNT allograft; [2]): 101 % ID/g
- Ex vivo biodistribution Fat (CaNT allograft; [2]): 1.57 % ID/g
- Ex vivo biodistribution Gallbladder (CaNT allograft; [2]): 194 % ID/g
- Ex vivo biodistribution Heart (CaNT allograft; [2]): 2.51 % ID/g
- Ex vivo biodistribution Kidney (CaNT allograft; [2]): 8.45 % ID/g
- Ex vivo biodistribution Large intestine (CaNT allograft; [2]): 61.2 % ID/g
- Ex vivo biodistribution Liver (CaNT allograft; [2]): 74.3 % ID/g
- Ex vivo biodistribution Lung (CaNT allograft; [2]): 2.29 % ID/g
- Ex vivo biodistribution Muscle (CaNT allograft; [2]): 2.65 % ID/g
- Ex vivo biodistribution Pancreas (CaNT allograft; [2]): 3.41 % ID/g
- Ex vivo biodistribution Skin (CaNT allograft; [2]): 1.16 % ID/g
- Ex vivo biodistribution Spleen (CaNT allograft; [2]): 2.41 % ID/g
- Ex vivo biodistribution Stomach (CaNT allograft; [2]): 4.09 % ID/g
- Ex vivo biodistribution Tumour (CaNT allograft; [2]): 0.98 % ID/g
- Ex vivo biodistribution Blood (CaNT allograft; [3]): 1.78 % ID/g and 8.00 % ID/g
- Ex vivo biodistribution Bone (CaNT allograft; [3]): 11.7 % ID/g and 10.2 % ID/g
- Ex vivo biodistribution Brain (CaNT allograft; [3]): 0.29 % ID/g and 0.23 % ID/g
- Ex vivo biodistribution Caecum (CaNT allograft; [3]): 32.5 % ID/g and 56.2 % ID/g
- Ex vivo biodistribution Fat (CaNT allograft; [3]): 7.19 % ID/g and 1.12 % ID/g
- Ex vivo biodistribution Gallbladder (CaNT allograft; [3]): 953 % ID/g and 126 % ID/g
- Ex vivo biodistribution Heart (CaNT allograft; [3]): 7.34 % ID/g and 0.00 % ID/g
- Ex vivo biodistribution Kidney (CaNT allograft; [3]): 23.9 % ID/g and 21.0 % ID/g
- Ex vivo biodistribution Large intestine (CaNT allograft; [3]): 24.0 % ID/g and 47.8 % ID/g
- Ex vivo biodistribution Liver (CaNT allograft; [3]): 84.6 % ID/g and 110 % ID/g
- Ex vivo biodistribution Lung (CaNT allograft; [3]): 12.5 % ID/g and 9.73 % ID/g
- Ex vivo biodistribution Muscle (CaNT allograft; [3]): 5.84 % ID/g and 4.63 % ID/g
- Ex vivo biodistribution Pancreas (CaNT allograft; [3]): 15.1 % ID/g and 20.8 % ID/g
- Ex vivo biodistribution Skin (CaNT allograft; [3]): 3.82 % ID/g and 4.65 % ID/g
- Ex vivo biodistribution Spleen (CaNT allograft; [3]): 43.3 % ID/g and 47.0 % ID/g
- Ex vivo biodistribution Stomach (CaNT allograft; [3]): 6.17 % ID/g and 12.8 % ID/g
- Ex vivo biodistribution Tumour (CaNT allograft; [3]): 1.48 % ID/g and 2.83 % ID/g
- tumour uptake (group mean) (CaNT allograft; excess cold olaparib): 0.80±0.19 % ID/g
- tumour uptake (group mean) (CaNT allograft; tracer alone): 1.71±0.59 % ID/g
